Literature values, collected in patent US11185540B2, “Extended release compositions of opioid antagonists and phosphodiesterase 5 inhibitors” (Pardon My Scotch, LLC, priority 2017, dated 2021).

Key:
[1] = system: PDE6
[2] = biological target: PDE9 (Homo sapiens, UniProt O76083)
[3] = in vivo
[4] = biological target: PDE5 (Homo sapiens, UniProt O76074)

PDE9, sequence (O76083 whole entry): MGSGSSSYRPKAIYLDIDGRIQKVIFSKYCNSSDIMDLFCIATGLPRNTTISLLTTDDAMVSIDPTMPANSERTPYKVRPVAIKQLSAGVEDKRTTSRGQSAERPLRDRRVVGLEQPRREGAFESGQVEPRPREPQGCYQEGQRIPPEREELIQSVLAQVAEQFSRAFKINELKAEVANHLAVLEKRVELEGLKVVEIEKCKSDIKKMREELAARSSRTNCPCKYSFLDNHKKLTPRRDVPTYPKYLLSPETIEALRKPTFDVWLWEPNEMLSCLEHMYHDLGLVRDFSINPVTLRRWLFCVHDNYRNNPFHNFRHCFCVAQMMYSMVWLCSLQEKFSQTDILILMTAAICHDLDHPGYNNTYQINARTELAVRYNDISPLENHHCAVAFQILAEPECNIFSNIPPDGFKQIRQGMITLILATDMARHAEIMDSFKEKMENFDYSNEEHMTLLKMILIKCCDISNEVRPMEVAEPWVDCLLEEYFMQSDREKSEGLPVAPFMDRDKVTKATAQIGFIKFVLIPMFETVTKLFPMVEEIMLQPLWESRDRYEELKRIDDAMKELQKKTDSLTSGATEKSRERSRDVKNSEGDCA

Row | SMILES | Inhibition of PDE6 [1] | Inhibition of PDE9 [2] | Plasma half-life [3] [h] | Inhibition of PDE5 [4]
1 | CCCc1nn(C)c2c(=O)[nH]c(-c3cc(S(=O)(=O)N4CCN(C)CC4)ccc3OCC)nc12 [sildenafil] | inhibit | inhibit | 5 to 7 | –
2 | CN1CC(=O)N2[C@H](c3ccc4c(c3)OCO4)c3[nH]c4ccccc4c3C[C@@H]2C1=O [tadalafil, pyrazino[1′,2′:1,6]pyrido[3,4-b]indole-1,4-dione, 6-(1,3-benzodioxol-5-yl)-2,3,6,7,12,12a-hexahydro-2-methyl-, (6R,12aR)-] | – | – | – | inhibit
3 | CCCc1nc(C)c2c(=O)[nH]c(-c3cc(S(=O)(=O)N4CCN(CC)CC4)ccc3OCC)nn12 [vardenafil] | – | – | 5 to 7 | –
